Data from patent US8492510B2, “Multifunctional degradable nanoparticles with control over size and functionalities” (Vanderbilt University, priority 2007, dated 2013).

Tested on: human microvascular endothelial cells (HMEC)
Assay: Internalization into HMEC, temperature effect and control experiments (confocal microscopy)
Format: cell-based
Settings: 10 uM, 60 min, 37° C.
Method: The human microvascular endothelial cells (HMEC) cells were incubated with conjugates (10 uM) for 2.5 min at 4° C. or at 37° C.
The HMEC cells were incubated with conjugates (1 uM) for 30 min at 4° C. or at 37° C.
(b) The HMEC cells were incubated with Boc-protected guanidinylated FD-2 (10 uM) for 60 min at 37° C.
Internalization of FD-1 and FD-2 in mammalian cells was assessed using two different cell lines and a previously described method [Futaki, S.; Nakase, I.; Suzuki, T.; Youjun, Y.; Sugiura, Y. Biochemistry 2002, 41, 7925.] with NIH-3T3 fibroblasts and HMEC (human microvascular endothelial cells) and a Zeiss LSM 510 confocal microscope. […] [Futaki, S.; Nakase, I.; Suzuki, T.; Youjun, Y.; Sugiura, Y. Biochemistry 2002, 41, 7925; Vivès, E.; Brodin, P.; Lebleu, B. J. Biol. Chem. 1997, 272, 16010.] Furthermore, the extent of internalization increased in an incubation time-dependent manner, and it was observed that after just 10 min, the fluorescence intensity of cells treated with FD-2 was near saturation. […] L. Org. Lett. 2005, 7, 4815.] but also regulate the subcellular localization of the molecule and its putative cargo. […] Therefore, the dendrimer with a hexyl spacer crosses the cell membrane faster than the molecule with an ethyl chain. On the other hand, the localization patterns can also be controlled by the length of the spacer. […]

With fluorescein isothiocyanate [free FITC] the “fluorescence of cells in control experiments” value was “no”.
